The values below come from ChEMBL document CHEMBL5608200, “Design, synthesis, and evaluation of antitumor activity of 2-arylmethoxy-4-(2-fluoromethyl-biphenyl-3-ylmethoxy) benzylamine derivatives as PD-1/PD-l1 inhibitors” (Eur J Med Chem, 2024).

The AUC(0-t) is exposure summed from dosing to a finite time, without extrapolation to infinity. What is called Cmax is the highest concentration seen after dosing. A word on the Tmax: it is the time from dosing to the highest level.

Data set [1] deals with HCC827. The data set is described as follows: Induction of T-cell mediated apoptosis in human HCC827 cells cocultured with PMA-stimulated Jurkat T cells assessed as mortality rate at 4 uM incubated for 48 hrs by CCK-8 assay. The data set is classed as functional. A general note: Tetrazolium assays rely on reduction of a dye to a coloured formazan, in cell work by metabolically active cells.

Data set [2] relates to HCC827. The data set is described as follows: Induction of T-cell mediated apoptosis in human HCC827 cells cocultured with PMA-stimulated Jurkat T cells assessed as mortality rate at 32 uM incubated for 48 hrs by CCK-8 assay. The data set is classed as functional.
A further data set concerns MDA-MB-231. Description: Induction of T-cell mediated apoptosis in human MDA-MB-231 cells cocultured with PMA-stimulated Jurkat T cells assessed as mortality rate at 32 uM incubated for 48 hrs by CCK-8 assay. The data set is classed as functional.
In another data set the test system is A549. The data set is described as follows: Induction of T-cell mediated apoptosis in human A549 cells cocultured with PMA-stimulated Jurkat T cells assessed as mortality rate at 1 to 32 uM incubated for 48 hrs by CCK-8 assay. The class given is functional, cell-based. The conditions noted are these: dose 1-32 µM.
In data set [3] the test system is HCC827. The data set is described as follows: Cytotoxicity against human HCC827 cells at 1 to 32 uM incubated for 48 hrs by CCK-8 assay. The class given is functional, cell-based. The conditions noted are these: dose 1-32 µM.
Data set [4] in a line: AUC(0 to t) in Sprague-Dawley rat at 10 mg/kg, iv measured upto 48 hrs by LC-MS/MS analysis. The class given is ADME, organism-based. As to conditions: in vivo.
A short description of data set [5]: Cmax in Sprague-Dawley rat at 10 mg/kg, iv measured upto 48 hrs by LC-MS/MS analysis. The conditions noted are these: in vivo. The data set is classed as ADME, organism-based.
Data set [6] is described as follows: Tmax in Sprague-Dawley rat at 10 mg/kg, iv measured upto 48 hrs by LC-MS/MS analysis. As to conditions: in vivo. The data set is classed as ADME, organism-based.
A short description of data set [7]: AUC(0 to t) in Sprague-Dawley rat at 50 mg/kg, IG measured upto 48 hrs by LC-MS/MS analysis. The data set is classed as ADME, organism-based. The conditions noted are these: in vivo, po.
A short description of data set [8]: Clearance in Sprague-Dawley rat at 50 mg/kg, IG measured upto 48 hrs by LC-MS/MS analysis. The data set is classed as ADME, organism-based. As to conditions: in vivo, po.
Data set [9] concerns MC-38. Description: Antitumor activity against mouse MC38 cells expressing hPD-L1 implanted in PD-1/PD-L1 humanized C57BL/6 mouse assessed as tumor growth inhibition at 50 mg/kg, IG. The data set is classed as functional. As to conditions: MC-38, po, read-out: TGI.
Data set [10] concerns MC-38. Description: Antitumor activity against mouse MC38 cells expressing hPD-L1 implanted in PD-1/PD-L1 humanized C57BL/6 mouse assessed as tumor growth inhibition at 50 mg/kg, IG QD administered for 15 days and measured every day by caliper method. The class given is functional. As to conditions: MC-38, po, 360 h, time 15 day, read-out: TGI.
A short description of data set [11]: Toxicity in PD-1/PD-L1 humanized C57BL/6 mouse implanted with mouse MC38 cells expressing hPD-L1 assessed as animal death at 50 mg/kg, IG QD administered for 15 days. The data set is classed as organism-based, MC-38. As to conditions: in vivo, po, 360 h, time 15 day.
In data set [12] the test system is MC-38. The data set is described as follows: Antitumor activity against mouse MC38 cells expressing hPD-L1 implanted in PD-1/PD-L1 humanized C57BL/6 mouse assessed as upregulation of granzyme B expression at 50 mg/kg, IG QD administered for 15 days by immunohistochemistry analysis. The conditions noted are these: time 15.0 day. The data set is classed as functional, organism-based.

Data set [13] can be described thus: Toxicity in PD-1/PD-L1 humanized C57BL/6 mouse implanted with mouse MC38 cells expressing hPD-L1 assessed as change in liver morphology at 50 mg/kg, IG QD administered for 15 days by H and E staining based inverted fluorescent microscopic assay. The data set is classed as organism-based, MC-38. As to conditions: in vivo, po, 360 h, time 15 day.
Data set [14] is described as follows: Toxicity in PD-1/PD-L1 humanized C57BL/6 mouse implanted with mouse MC38 cells expressing hPD-L1 assessed as nephrotoxicity at 50 mg/kg, IG QD administered for 15 days. As to conditions: in vivo, po, 360 h, time 15 day. The class given is organism-based, MC-38.

Activity calls are given as the source filed them. No cut-off for these calls is given here.

As for `N#Cc1cncc(COc2cc(OCc3cccc(-c4ccc5c(c4)OCCO5)c3C(F)F)ccc2CNCCO)c1`, the Activity with HCC827 [1] is 40.4%; with HCC827 [2] it was 71.2%; in the data set with MDA-MB-231 it was 64%; in data set [11], “Non-Toxic”; in data set [13], “Non-Toxic”; in [14] it was “Non-Toxic”. Besides, the outcome in the data set on A549 and with HCC827 [3] was inactive. Moreover, the values for the AUC(0-t) at 48 h in data set [4] and in data set [7] were 12800 ng·h/mL and 41800 ng·h/mL, respectively. Further, in data set [5], the peak concentration (Cmax) is 4560 ng/mL. For the same compound, the Tmax in data set [6] came out at 7.8 min. Further, the CL in data set [8] amounted to 19.8 mL/min/kg. Moreover, the inhibition in vivo at 50 mg/kg in the data set with MC-38 [9] turned out to be 62.4%; in the data set on MC-38 [10] it was 57.3%. Besides, in the data set with MC-38 [12], the outcome was Active.
